Source: patent publication US10988445B2 (AstraZeneca AB, priority 2015, dated 2021)
Read-outs that look alike come from different tables or passages of the source.

Test system: human TH17 cells
Test: Inhibition of IL-17 release from human TH17 cells
Type: cell-based
Settings: isolated human TH17 cells, 4 days culture, IL-17A by HTRF; for IC50: 96 h, read-out: pIC50 IL-17 release (converted)
Text: Inhibition of IL-17 Release from Human TH17 Cells (IL-17 Release)
This test is designed to screen compounds for their inhibitory effect on the release of IL-17 from isolated and cultured human TH17 cells.
Peripheral blood mononuclear cells (PBMC) were isolated from heparin treated human whole blood fromhealthy donors by density gradient centrifugation. TH17 cells (CD4+CXCR3-CCR6+) were enriched using a human TH17 Cell Enrichment Kit (Stemcell Technologies) according to the manufacturer's protocol. […] On day 4 supernatants were collected and IL-17A was measured using a Human IL-17 HTRF Assay kit (Cisbio Bioassays) according to the manufacturer's protocol. […] Results

Row | SMILES | IC50 (Homo sapiens) [nM] | other results
1 | CS(=O)(=O)c1ccc2c(c1)CN(C(N)=O)C2C(=O)Nc1ccc(C(O)(C(F)(F)F)C(F)(F)F)cc1 (stereo not drawn) [Example 455, N^1-[4-(1,1,1,3,3,3-Hexafluoro-2-hydroxypropan-2-yl)phenyl]-5-(methylsulfonyl)-1,3-dihydro-2H-isoindole-1,2-dicarboxamide] | 100 | –
2 | COCCS(=O)(=O)c1ccc2c(c1)CNC2C(=O)Nc1ccc(C(O)(C(F)(F)F)C(F)(F)F)cc1 (stereo not drawn) [Example 700, N-(4-(1,1,1,3,3,3-hexafluoro-2-hydroxypropan-2-yl)phenyl)-5-((2-methoxyethyl)sulfonyl)isoindoline-1-carboxamide] | 100 | –
3 | CCS(=O)(=O)c1ccc2c(c1)CN(C(=O)CC1CCC1)C2C(=O)Nc1ccc(C(O)(C(F)(F)F)C(F)(F)F)cc1 (stereo not drawn) [Example 109, 2-(Cyclobutylacetyl)-5-(ethylsulfonyl)-N-[4-(1,1,1,3,3,3-hexafluoro-2-hydroxypropan-2-yl)phenyl]-2,3-dihydro-1H-isoindole-1-carboxamide] | 20 | –
4 | N#CC1(C(=O)N2Cc3cc(S(=O)(=O)CC4CC4)ccc3C2C(=O)Nc2ccc(C(O)(C(F)(F)F)C(F)(F)F)cc2)CC1 (stereo not drawn) [Example 209, 2-[(1-Cyanocyclopropyl)carbonyl]-5-[(cyclopropylmethyl)sulfonyl]-N-[4-(1,1,1,3,3,3-hexafluoro-2-hydroxypropan-2-yl)phenyl]-2,3-dihydro-1H-isoindole-1-carboxamide] | 25.1 | –
5 | CCS(=O)(=O)c1ccc2c(c1)CNC2C(=O)Nc1ccc(C(O)(C(F)(F)F)C(F)(F)F)cc1 (stereo not drawn) [Example 100, 5-(Ethylsulfonyl)-N-[4-(1,1,1,3,3,3-hexafluoro-2-hydroxypropan-2-yl)phenyl]-2,3-dihydro-1H-isoindole-1-carboxamide] | 39.8 | –
6 | COC1(C(=O)N2Cc3cc(S(=O)(=O)CCO)ccc3C2C(=O)Nc2ccc(C(O)(C(F)(F)F)C(F)(F)F)cc2)CC1 (stereo not drawn) [Example 802, N-[4-(1,1,1,3,3,3-Hexafluoro-2-hydroxypropan-2-yl)phenyl]-5-[(2-hydroxyethyl)sulfonyl]-2-[(1-methoxycyclopropyl)carbonyl]-2,3-dihydro-1H-isoindole-1-carboxamide] | 79.4 | –
7 | C[C@H](F)CC(=O)N1Cc2cc(S(C)(=O)=O)ccc2C1C(=O)Nc1ccc(C(O)(C(F)(F)F)C(F)(F)F)cc1 (stereo partly drawn) [Example 413, 2-[(3S)-3-Fluorobutanoyl]-N-[4-(1,1,1,3,3,3-hexafluoro-2-hydroxypropan-2-yl)phenyl]-5-(methylsulfonyl)-2,3-dihydro-1H-isoindole-1-carboxamide] | 31.6 | –
8 | COCCS(=O)(=O)c1ccc2c(c1)CN(C(=O)CO)C2C(=O)Nc1ccc(C(O)(C(F)(F)F)C(F)(F)F)cc1 (stereo not drawn) [Example 705, N-[4-(1,1,1,3,3,3-Hexafluoro-2-hydroxypropan-2-yl)phenyl]-2-(hydroxyacetyl)-5-[(2-methoxyethyl)sulfonyl]-2,3-dihydro-1H-isoindole-1-carboxamide] | 100 | –
9 | CNS(=O)(=O)c1ccc2c(c1)CN(C(=O)[C@H]1CCCO1)C2C(=O)Nc1ccc(C(O)(C(F)(F)F)C(F)(F)F)cc1 (stereo partly drawn) [Example 310, N-[4-(1,1,1,3,3,3-Hexafluoro-2-hydroxypropan-2-yl)phenyl]-5-(methylsulfamoyl)-2-[(2R)-tetrahydrofuran-2-ylcarbonyl]-2,3-dihydro-1H-isoindole-1-carboxamide] | 31.6 | –
10 | CS(=O)(=O)c1ccc2c(c1)CN(C(=O)NC1CC1)C2C(=O)Nc1ccc(C(O)(C(F)(F)F)C(F)(F)F)cc1 (stereo not drawn) [Example 456, N^2—Cyclopropyl-N^1-[4-(1,1,1,3,3,3-hexafluoro-2-hydroxypropan-2-yl)phenyl]-5-(methylsulfonyl)-1,3-dihydro-2H-isoindole-1,2-dicarboxamide] | 12.6 | –
11 | CC1(C(=O)N2Cc3cc(S(C)(=O)=O)ccc3[C@@H]2C(=O)Nc2ccc(C(O)(C(F)(F)F)C(F)(F)F)cc2)CCO1 (single isomer, unassigned) [Example 452, isomer 1] | – | pIC50 IL-17 release (listed as 452, isomer 1): 7.7
12 | CNC(=O)N1Cc2cc(S(=O)(=O)NC)ccc2C1C(=O)Nc1ccc(C(O)(C(F)(F)F)C(F)(F)F)cc1 (stereo not drawn) [Example 314] | 63.1 | –
13 | CNS(=O)(=O)c1ccc2c(c1)CNC2C(=O)Nc1ccc(C(O)(C(F)(F)F)C(F)(F)F)cc1 (stereo not drawn) [Example 300, N-[4-(1,1,1,3,3,3-hexafluoro-2-hydroxypropan-2-yl)phenyl]-5-(methylsulfamoyl)-2,3-dihydro-1H-isoindole-1-carboxamide] | 25.1 | –
14 | CC(CF)C(=O)N1Cc2cc(S(C)(=O)=O)ccc2C1C(=O)Nc1ccc(C(O)(C(F)(F)F)C(F)(F)F)cc1 (stereo not drawn) [Example 408, 2-(3-Fluoro-2-methylpropanoyl)-N-[4-(1,1,1,3,3,3-hexafluoro-2-hydroxypropan-2-yl)phenyl]-5-(methylsulfonyl)-2,3-dihydro-1H-isoindole-1-carboxamide] | 12.6 | –
15 | COCCS(=O)(=O)c1ccc2c(c1)CN(C(=O)OC)C2C(=O)Nc1ccc(C(O)(C(F)(F)F)C(F)(F)F)cc1 (stereo not drawn) [Example 704, Methyl 1-{[4-(1,1,1,3,3,3-hexafluoro-2-hydroxypropan-2-yl)phenyl]carbamoyl}-5-[(2-methoxyethyl)sulfonyl]-1,3-dihydro-2H-isoindole-2-carboxylate] | 25.1 | –
16 | CNS(=O)(=O)c1ccc2c(c1)CN(C(=O)[C@@H]1CCCO1)C2C(=O)Nc1ccc(C(O)(C(F)(F)F)C(F)(F)F)cc1 (stereo partly drawn) [Example 311, N-[4-(1,1,1,3,3,3-Hexafluoro-2-hydroxypropan-2-yl)phenyl]-5-(methylsulfamoyl)-2-[(2S)-tetrahydrofuran-2-ylcarbonyl]-2,3-dihydro-1H-isoindole-1-carboxamide] | 31.6 | –
17 | O=C(Nc1ccc(C(O)(C(F)(F)F)C(F)(F)F)cc1)C1c2ccc(S(=O)(=O)CC3CC3)cc2CN1C(=O)C1CCOC1 (stereo not drawn) [Example 210, 5-[(Cyclopropylmethyl)sulfonyl]-N-[4-(1,1,1,3,3,3-hexafluoro-2-hydroxypropan-2-yl)phenyl]-2-(tetrahydrofuran-3-ylcarbonyl)-2,3-dihydro-1H-isoindole-1-carboxamide] | 25.1 | –
18 | O=C(Nc1ccc(C(O)(C(F)(F)F)C(F)(F)F)cc1)C1c2ccc(S(=O)(=O)CC3CC3)cc2CN1C(=O)C(F)(F)C1CC1 (stereo not drawn) [Example 214, 2-[Cyclopropyl(difluoro)acetyl]-5-[(cyclopropylmethyl)sulfonyl]-N-[4-(1,1,1,3,3,3-hexafluoro-2-hydroxypropan-2-yl)phenyl]-2,3-dihydro-1H-isoindole-1-carboxamide] | 10 | –
19 | CCS(=O)(=O)c1ccc2c(c1)CN(C(=O)C1(C#N)CC1)C2C(=O)Nc1ccc(C(O)(C(F)(F)F)C(F)(F)F)cc1 (stereo not drawn) [Example 105, 2-[(1-Cyanocyclopropyl)carbonyl]-5-(ethylsulfonyl)-N-[4-(1,1,1,3,3,3-hexafluoro-2-hydroxypropan-2-yl)phenyl]-2,3-dihydro-1H-isoindole-1-carboxamide] | 20 | –
20 | O=CN1Cc2cc(S(=O)(=O)C3CC3)ccc2C1C(=O)Nc1ccc(C(O)(C(F)(F)F)C(F)(F)F)cc1 (stereo not drawn) [Example 604, 5-(Cyclopropylsulfonyl)-2-formyl-N-[4-(1,1,1,3,3,3-hexafluoro-2-hydroxypropan-2-yl)phenyl]-2,3-dihydro-1H-isoindole-1-carboxamide] | 50.1 | –
21 | COC(C)(C)C(=O)N1Cc2cc(S(C)(=O)=O)ccc2C1C(=O)Nc1ccc(C(O)(C(F)(F)F)C(F)(F)F)cc1 (stereo not drawn) [Example 419, N-[4-(1,1,1,3,3,3-Hexafluoro-2-hydroxypropan-2-yl)phenyl]-2-(2-methoxy-2-methylpropanoyl)-5-(methylsulfonyl)-2,3-dihydro-1H-isoindole-1-carboxamide] | 50.1 | –
22 | CC1(C(=O)N2Cc3cc(S(C)(=O)=O)ccc3[C@@H]2C(=O)Nc2ccc(C(O)(C(F)(F)F)C(F)(F)F)cc2)CCO1 (single isomer, unassigned) [Example 452, isomer 2] | – | pIC50 IL-17 release (listed as 452, isomer 2): 7.3
23 | CC(C)(O)CC(=O)N1Cc2cc(S(=O)(=O)CC3CC3)ccc2C1C(=O)Nc1ccc(C(O)(C(F)(F)F)C(F)(F)F)cc1 (stereo not drawn) [Example 207, 5-[(Cyclopropylmethyl)sulfonyl]-N-[4-(1,1,1,3,3,3-hexafluoro-2-hydroxypropan-2-yl)phenyl]-2-(3-hydroxy-3-methylbutanoyl)-2,3-dihydro-1H-isoindole-1-carboxamide] | 39.8 | –
24 | NC(C(=O)N1Cc2cc(S(=O)(=O)CC3CC3)ccc2C1C(=O)Nc1ccc(C(O)(C(F)(F)F)C(F)(F)F)cc1)C1CC1 (stereo not drawn) [Example 211, 2-[Amino(cyclopropyl)acetyl]-5-[(cyclopropylmethyl)sulfonyl]-N-[4-(1,1,1,3,3,3-hexafluoro-2-hydroxypropan-2-yl)phenyl]-2,3-dihydro-1H-isoindole-1-carboxamide] | 200 | –
25 | CNC(=O)N1Cc2cc(S(=O)(=O)CCOC)ccc2C1C(=O)Nc1ccc(C(O)(C(F)(F)F)C(F)(F)F)cc1 (stereo not drawn) [Example 707] | 50.1 | –
26 | COC1(CC(=O)N2Cc3cc(S(C)(=O)=O)ccc3C2C(=O)Nc2ccc(C(O)(C(F)(F)F)C(F)(F)F)cc2)CC1 (stereo not drawn) [Example 417, N-[4-(1,1,1,3,3,3-Hexafluoro-2-hydroxypropan-2-yl)phenyl]-2-[(1-methoxycyclopropyl)acetyl]-5-(methylsulfonyl)-2,3-dihydro-1H-isoindole-1-carboxamide] | 31.6 | –
27 | COC1(C(=O)N2Cc3cc(S(C)(=O)=O)ccc3C2C(=O)Nc2ccc(C(O)(C(F)(F)F)C(F)(F)F)cc2)CCC1 (stereo not drawn) [Example 448, N-[4-(1,1,1,3,3,3-Hexafluoro-2-hydroxypropan-2-yl)phenyl]-2-[(1-methoxycyclobutyl)carbonyl]-5-(methylsulfonyl)-2,3-dihydro-1H-isoindole-1-carboxamide] | – | IC50: 79.4 nM
